SMILES strings stand for the structures. Where “and” joins values, the source holds several entries; their conditions need not be identical. Identical values can stand only once. Like-named read-outs stand apart in the source and are kept apart here.

23 molecules from patent US20160137630A1, “INDUCTION OF GATA2 BY HDAC1 AND HDAC2 INHIBITORS” (ACETYLON PHARMACEUTICALS, INC., priority 2014, published 2016) can be followed below.

What all share (experiment): in vitro biochemical HDAC inhibition assay
The target of assay [1] is HDAC2 (Homo sapiens, UniProt Q92769). The settings on record: read-out: IC50 HDAC2.
Assay [2] concerns the target HDAC1 (Homo sapiens, UniProt Q13547). As to conditions: read-out: IC50 HDAC1.
In assay [3] the target is HDAC3 (Homo sapiens, UniProt O15379). As to conditions: for IC50: read-out: IC50 HDAC3.
Chain of HDAC3 (O15379 whole entry): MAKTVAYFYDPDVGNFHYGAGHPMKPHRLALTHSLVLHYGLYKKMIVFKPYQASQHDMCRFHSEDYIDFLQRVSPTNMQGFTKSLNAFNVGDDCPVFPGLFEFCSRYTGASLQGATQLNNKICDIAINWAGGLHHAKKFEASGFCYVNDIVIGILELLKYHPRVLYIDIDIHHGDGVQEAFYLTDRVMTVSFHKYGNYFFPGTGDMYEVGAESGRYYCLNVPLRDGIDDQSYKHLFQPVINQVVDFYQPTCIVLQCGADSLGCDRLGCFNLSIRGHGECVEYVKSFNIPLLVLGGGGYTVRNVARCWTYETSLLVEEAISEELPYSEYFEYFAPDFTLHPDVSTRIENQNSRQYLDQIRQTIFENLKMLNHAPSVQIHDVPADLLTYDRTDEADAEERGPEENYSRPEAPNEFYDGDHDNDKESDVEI
Chain of HDAC3 (Q9Y618 395-489 partner limits assumed): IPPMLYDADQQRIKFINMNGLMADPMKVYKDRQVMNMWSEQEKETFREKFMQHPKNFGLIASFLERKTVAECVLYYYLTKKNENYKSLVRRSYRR

Chain of HDAC1 (Q13547 whole entry): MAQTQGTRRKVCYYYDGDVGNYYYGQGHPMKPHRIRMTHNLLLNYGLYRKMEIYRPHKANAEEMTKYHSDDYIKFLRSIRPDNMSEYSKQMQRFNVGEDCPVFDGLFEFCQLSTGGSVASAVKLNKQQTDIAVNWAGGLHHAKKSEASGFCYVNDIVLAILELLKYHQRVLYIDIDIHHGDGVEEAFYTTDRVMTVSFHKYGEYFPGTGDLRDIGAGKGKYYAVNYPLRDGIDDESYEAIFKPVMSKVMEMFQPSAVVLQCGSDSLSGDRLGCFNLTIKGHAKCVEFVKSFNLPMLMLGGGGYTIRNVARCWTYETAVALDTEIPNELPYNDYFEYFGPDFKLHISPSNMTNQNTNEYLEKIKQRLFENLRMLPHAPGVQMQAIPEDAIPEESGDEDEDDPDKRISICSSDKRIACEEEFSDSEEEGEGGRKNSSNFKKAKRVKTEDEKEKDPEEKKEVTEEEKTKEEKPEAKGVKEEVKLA
Chain of HDAC2 (Q92769 whole entry): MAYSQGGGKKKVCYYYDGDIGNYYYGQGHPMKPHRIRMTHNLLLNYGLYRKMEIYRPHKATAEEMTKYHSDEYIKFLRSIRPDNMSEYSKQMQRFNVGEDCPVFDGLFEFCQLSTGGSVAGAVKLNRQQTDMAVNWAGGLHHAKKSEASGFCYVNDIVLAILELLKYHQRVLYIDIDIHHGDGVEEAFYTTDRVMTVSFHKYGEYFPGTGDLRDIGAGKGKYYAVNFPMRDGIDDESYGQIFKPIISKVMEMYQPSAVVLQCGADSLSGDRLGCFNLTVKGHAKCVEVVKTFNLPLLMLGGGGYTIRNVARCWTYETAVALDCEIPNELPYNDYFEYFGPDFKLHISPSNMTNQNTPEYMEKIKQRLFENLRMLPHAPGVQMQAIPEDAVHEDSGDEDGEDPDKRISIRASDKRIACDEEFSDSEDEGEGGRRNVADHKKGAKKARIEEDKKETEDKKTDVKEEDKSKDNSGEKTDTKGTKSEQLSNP

By IC50 is commonly meant the point on the concentration scale where inhibition reaches its midpoint. `Nc1ccccc1NC(=O)c1ccc(N2CCNCC2)cc1C1CC1` [Compound 2006]: the IC50 is more than 2 µM in assay [1] (Table 4), 1.4 µM in assay [2] (Table 4) and 0.023 µM in assay [3] (Table 4).

For `CN1CCN(C(=O)N2CCC(C)(Nc3ncc(C(=O)Nc4cc(-c5cccs5)ccc4N)cn3)CC2)CC1` [Compound 2009], the results for the IC50 in assay [1] (Table 4), in assay [2] (Table 4) and in assay [3] (Table 4) were 0.0315 µM, 0.00853 µM and 0.259 µM, respectively.

Turning to `Nc1ccc(-c2cccs2)cc1NC(=O)c1ccc2nc(N3CCNCC3)cnc2c1` [N-(2-amino-5-(thiophen-2-yl)phenyl)-2-(piperazin-1-yl)quinoxaline-6-carboxamide], the half-maximal inhibitory concentration (IC50) in assay [1] (Table 2) was determined as 0.012 µM; in assay [2] (Table 2), 0.007 µM; in assay [3] (Table 2), 0.071 µM.

As to `COCCN(C)c1cc2ncc(C(=O)Nc3cc(-c4cccs4)ccc3N)cc2cc1C1CC1` [N-(2-amino-5-(thiophen-2-yl)phenyl)-6-cyclopropyl-7-((2-methoxyethyl)(methyl)amino)quinoline-3-carboxamide], the values for the IC50 in assay [1] (Table 2), in assay [2] (Table 2) and in assay [3] (Table 2) were 0.667 µM, 0.944 µM and more than 2 µM, respectively.

For the molecule `COCCNc1cc2ncc(C(=O)Nc3cc(-c4cccs4)ccc3N)cc2cc1C1CC1` [N-(2-amino-5-(thiophen-2-yl)phenyl)-6-cyclopropyl-7-((2-methoxyethyl)amino)quinoline-3-carboxamide], the half-maximal inhibitory concentration (IC50) in assay [1] (Table 2) turned out to be 0.243 µM; in assay [2] (Table 2), 0.089 µM; in assay [3] (Table 2) it was 1.55 µM.

`Nc1ccc(-c2cccs2)cc1NC(=O)c1cnc2c(C3CC3)c(N3CCNCC3)ccc2c1` [N-(2-amino-5-(thiophen-2-yl)phenyl)-8-cyclopropyl-7-(piperazin-1-yl)quinoline-3-carboxamide]: the values for the concentration for half-maximal inhibition (IC50) in assay [1] (Table 2), in assay [2] (Table 2) and in assay [3] (Table 2) were 0.014 µM, 0.0031 µM and 0.099 µM, respectively.

Consider `Nc1sc(-c2ccccc2)cc1NC(=O)c1cnc2cc(N3CCNCC3)ccc2c1` [N-(2-amino-5-phenylthiophen-3-yl)-7-(piperazin-1-yl)quinoline-3-carboxamide], for which the figures for the IC50 in assay [1] (Table 2), in assay [2] (Table 2) and in assay [3] (Table 2) were 0.193 µM, 1.21 µM and 0.171 µM, respectively.

For the molecule `Nc1ccccc1NC(=O)c1ccc2nc(N3CCNCC3)ccc2c1` [N-(2-aminophenyl)-2-(piperazin-1-yl)quinoline-6-carboxamide], the values for the IC50 in assay [1] (Table 2), in assay [2] (Table 2) and in assay [3] (Table 2) were 0.624 µM, more than 2 µM and 0.104 µM, respectively.

Take `Nc1cc(-c2ccccc2)sc1NC(=O)c1cnc2cc(N3CCNCC3)ccc2c1` [N-(3-amino-5-phenylthiophen-2-yl)-7-(piperazin-1-yl)quinoline-3-carboxamide]: the half-maximal inhibitory concentration (IC50) in assay [1] (Table 2), in assay [2] (Table 2) and in assay [3] (Table 2) was more than 2 µM each time.

As to `Nc1ccc(-c2ccccc2)nc1NC(=O)c1cnc2cc(N3CCNCC3)ccc2c1` [N-(3-amino-6-phenylpyridin-2-yl)-7-(piperazin-1-yl)quinoline-3-carboxamide], the half-maximal inhibitory concentration (IC50) was 0.336 µM in assay [1] (Table 2), 1.97 µM in assay [2] (Table 2) and 0.798 µM in assay [3] (Table 2).

In the case of `CN1CCN(CCn2ccc3cc(C(=O)Nc4cc(-c5ccccc5)ccc4N)ccc32)CC1` [N-(4-amino-[1,1′-biphenyl]-3-yl)-1-(2-(4-methylpiperazin-1-yl)ethyl)-1H-indole-5-carboxamide], the figures for the IC50 in assay [1] (Table 2), in assay [2] (Table 2) and in assay [3] (Table 2) were 0.011 µM, 0.0071 µM and 0.175 µM, respectively.

Turning to `Nc1ccc(-c2ccccc2)cc1NC(=O)c1ccc2c(cnn2CCN2CCOCC2)c1` [N-(4-amino-[1,1′-biphenyl]-3-yl)-1-(2-morpholinoethyl)-1H-indazole-5-carboxamide], the IC50 in assay [1] (Table 2) came out at 0.019 µM; in assay [2] (Table 2), 0.0074 µM; in assay [3] (Table 2), 0.344 µM.

Regarding `Nc1ccc(-c2ccccc2)cc1NC(=O)c1cnc2c(ccn2CCN2CCOCC2)c1` [N-(4-amino-[1,1′-biphenyl]-3-yl)-1-(2-morpholinoethyl)-1H-pyrrolo[2,3-b]pyridine-5-carboxamide], the IC50 in assay [1] (Table 2) worked out at 0.031 µM; in assay [2] (Table 2) it was 0.0068 µM; in assay [3] (Table 2), 0.373 µM.

`Nc1ccc(-c2ccccc2)cc1NC(=O)c1ccc2nn(CCN3CCOCC3)cc2c1` [N-(4-amino-[1,1′-biphenyl]-3-yl)-2-(2-morpholinoethyl)-2H-indazole-5-carboxamide]: the figures for the IC50 in assay [1] (Table 2), in assay [2] (Table 2) and in assay [3] (Table 2) were 0.023 µM, 0.011 µM and 0.477 µM, respectively.

Regarding `Nc1ccc(-c2ccccc2)cc1NC(=O)c1ccc2c(c1)cc(C1CC1)n2CCN1CCOCC1` [N-(4-amino-[1,1′-biphenyl]-3-yl)-2-cyclopropyl-1-(2-morpholinoethyl)-1H-indole-5-carboxamide], the values for the half-maximal inhibitory concentration (IC50) in assay [1] (Table 2), in assay [2] (Table 2) and in assay [3] (Table 2) were 0.07 µM, 0.015 µM and 0.689 µM, respectively.

`COCCn1cc(C2CC2)c2cc(C(=O)Nc3cc(-c4ccccc4)ccc3N)ccc21` [N-(4-amino-[1,1′-biphenyl]-3-yl)-3-cyclopropyl-1-(2-methoxyethyl)-1H-indole-5-carboxamide]: the 50% inhibitory concentration (IC50) in assay [1] (Table 2), in assay [2] (Table 2) and in assay [3] (Table 2) was more than 2 µM in each case.

Turning to `Nc1ccc(-c2ccccc2)cc1NC(=O)c1ccc2c(c1)c(C1CC1)cn2CCN1CCOCC1` [N-(4-amino-[1,1′-biphenyl]-3-yl)-3-cyclopropyl-1-(2-morpholinoethyl)-1H-indole-5-carboxamide], the concentration for half-maximal inhibition (IC50) is 0.681 µM in assay [1] (Table 2), more than 2 µM in assay [2] (Table 2) and 1.91 µM in assay [3] (Table 2).

For the molecule `COCCOc1cc2ncc(C(=O)Nc3cc(-c4ccccc4)ccc3N)cc2cc1C1CC1` [N-(4-amino-[1,1′-biphenyl]-3-yl)-6-cyclopropyl-7-(2-methoxyethoxy)quinoline-3-carboxamide], the IC50 in assay [1] (Table 2) was 1.56 µM; in assay [2] (Table 2), more than 2 µM; in assay [3] (Table 2), more than 2 µM.

For `COCCN(C)c1cc2ncc(C(=O)Nc3cc(-c4ccccc4)ccc3N)cc2cc1C1CC1` [N-(4-amino-[1,1′-biphenyl]-3-yl)-6-cyclopropyl-7-((2-methoxyethyl)(methyl)amino)quinoline-3-carboxamide], the half-maximal inhibitory concentration (IC50) in assay [1] (Table 2) is 1.22 µM; in assay [2] (Table 2), more than 2 µM; in assay [3] (Table 2), more than 2 µM.

For `Nc1ccc(-c2ccccc2)cc1NC(=O)c1cnc2c(C3CC3)c(NCc3ccccc3)ccc2c1` [N-(4-amino-[1,1′-biphenyl]-3-yl)-7-(benzylamino)-8-cyclopropylquinoline-3-carboxamide], the IC50 is more than 2 µM in assay [1] (Table 2) and 0.652 µM in assay [2] (Table 2). Besides, the “IC50 HDAC3” value in assay [3] (Table 2) is given as “HDAC3 = No inhibition”.

With `Nc1ccc(-c2ccccc2)cc1NC(=O)c1cnc2c(N3CCNCC3)c(C3CC3)ccc2c1` [N-(4-amino-[1,1′-biphenyl]-3-yl)-7-cyclopropyl-8-(piperazin-1-yl)quinoline-3-carboxamide], the IC50 in assay [1] (Table 2) amounted to 0.056 µM; in assay [2] (Table 2) it was 0.103 µM; in assay [3] (Table 2), 0.257 µM.

For the molecule `COCCNc1ccc2cc(C(=O)Nc3cc(-c4ccccc4)ccc3N)cnc2c1C1CC1` [N-(4-amino-[1,1′-biphenyl]-3-yl)-8-cyclopropyl-7-((2-methoxyethyl)amino)quinoline-3-carboxamide], the figures for the IC50 in assay [1] (Table 2) and in assay [3] (Table 2) were 0.301 µM and more than 2 µM, respectively.

Regarding `Nc1cnc(-c2ccccc2)cc1NC(=O)c1cnc2cc(N3CCNCC3)ccc2c1` [N-(5-amino-2-phenylpyridin-4-yl)-7-(piperazin-1-yl)quinoline-3-carboxamide], the IC50 in assay [1] (Table 2) is 1.19 µM and 1.88 µM; in assay [2] (Table 2) it was 1.23 µM.
